Test results taken from patent US4423242A, “Pharmaceutical amides, and preparation, formulations and use of thereof” (The Wellcome Foundation Ltd., priority 1981, dated 1983).
pIC50: −log10 of the molar value. Structures can show the parent of a compound that is named as a salt.

Molecular target: T1, purified enkephalinase Al (Rattus norvegicus, UniProt P07861)
T1 construct: the solubilised enzymes contained in the supernatant separated by DEAE-cellulose column chromatography; from tissue; host or cells: rat striatum, washed membrane pellet solubilised with Triton X-100, DEAE-cellulose then Sephacryl S.300
T1 sequence (P07861 1-750): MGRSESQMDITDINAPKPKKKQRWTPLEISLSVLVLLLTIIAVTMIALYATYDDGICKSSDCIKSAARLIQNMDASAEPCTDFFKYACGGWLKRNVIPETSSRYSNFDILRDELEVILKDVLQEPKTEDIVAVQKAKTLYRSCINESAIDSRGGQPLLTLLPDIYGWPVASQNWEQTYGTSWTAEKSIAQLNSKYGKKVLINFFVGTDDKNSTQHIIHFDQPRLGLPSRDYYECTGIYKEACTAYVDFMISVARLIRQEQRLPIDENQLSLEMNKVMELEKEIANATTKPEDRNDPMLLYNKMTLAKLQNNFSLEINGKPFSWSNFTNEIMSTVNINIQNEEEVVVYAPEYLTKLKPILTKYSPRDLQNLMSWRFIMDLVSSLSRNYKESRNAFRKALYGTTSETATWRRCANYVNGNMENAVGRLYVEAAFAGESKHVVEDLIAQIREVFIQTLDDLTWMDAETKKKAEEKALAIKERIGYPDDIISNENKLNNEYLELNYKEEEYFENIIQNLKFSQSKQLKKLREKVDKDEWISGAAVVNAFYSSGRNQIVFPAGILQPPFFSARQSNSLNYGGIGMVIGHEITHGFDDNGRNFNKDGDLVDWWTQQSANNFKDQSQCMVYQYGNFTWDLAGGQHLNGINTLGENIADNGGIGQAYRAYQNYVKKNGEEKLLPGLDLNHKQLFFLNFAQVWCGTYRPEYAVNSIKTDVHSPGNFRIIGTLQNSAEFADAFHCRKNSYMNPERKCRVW
Assay: Enkephalinase-inhibiting activity in vitro (inhibition of 3H-TGG generation from 3H-leucine enkephalin)
Type: biochemical
Conditions: approximate, determined graphically; leucine enkephalin 5×10^-5 M; 30° C.; 30 min with enzyme; read-out: IC50 (concentration of test compound required for 50% inhibition of 3H-TGG generation)
Procedure: The compounds were investigated for enkephalinase-inhibiting activity using the following method.
Purified enkephalinase Al was obtained according to the following procedure (modification of the method of Gorenstein and Snyder, Life Science, Vol. 25, pages 2065-2070, 1979).
Rats were killed by decapitation and the striata dissected out on ice. The pooled tissues were homogenised in ice-cold Tris/hydrochloric acid buffer (50 mM, pH 7.70, 30 ml per gram of tissue) and centrifuged (50,000 g, 15 mins). The resulting supernatent was discarded and the remaining pellet washed three times. The washed pellet was solubilised by resuspension in half the volume of buffer as before containing 1.0% (v/v) Triton X-100 and incubated at 37° C. for 45 mins. The suspension was then centrifuged at 100,000 g for 60 mins and the solubilised enzymes contained in the supernatant separated by DEAE-cellulose column chromatography. Enkephalinase Al was further purified by Sephacryl S.300 chromatography.
Enkephalinase-inhibiting activity was estimated by the following procedure. 1.75 μl of leucine enkephalin (0.317 mg/ml), 0.5 μl of ^3 H-leucine enkephalin (tyrosyl-3,5-^3 H Enkephalin (5-L-Leucine), The Radiochemical Centre, Amersham, England) and 5.75 μl of buffer as before were incubated at 30° C. for 10 mins with 2 μl of either a solution of test compound (in either 50% ethanol/0.1 M sodium hydrogen carbonate or distilled water) or solvent alone as control. 10 μl of purified enkephalinase Al at 30° C. were added and incubation then continued for a further 30 mins (total incubation time 40 mins, final leucine enkephalin concentration 5×10^-5 M, final ^3 H-leucine enkephalin concentration 12.5 μCi/ml). At the completion of incubation 3 μl of 0.16 M hydrochloric acid was added and the incubation mixture cooled on ice.
Separation of (a) unchanged ^3 H-leucine enkephalin and (b) ^3 H-Tyr-Gly-Gly-OH (^3 H-TGG), generated from (a) by enkephalinase Al in the incubation mixture was effected by thin layer chromatography (plastic silica gel plates of 0.1 mm layer chromatography (plastic silica gel plates of 0.1 mm layer thickness, solvent system ethyl acetate: propan-2-ol: 5% (v/v) acetic acid, 2:2:1) using solutions of the cold compounds as carriers. After drying the materials were visualized with ninhydrin and appropriate areas of the plates cut out and placed in scintillation vials containing 50% methanol/0.1 M hydrochloric acid to elute the ^3 H label. Biofluor reagent (10 ml) was then added and the radioactivity determined by liquid scintillation counting.
The ^3 H-TGG generated in the presence of test compound (expressed as a percentage of the control figure) was then calculated and an approximate IC50 figure (concentration of test compound required for 50% inhibition of ^3 H-TGG generation) then determined graphically.

In order of falling pIC50:
1. CC(C)C[C@H](NC(=O)C(Cc1ccccc1)P(=O)(O)O)C(=O)O (stereo partly drawn) [compound 6, N-[2-(Dihydroxyphosphinyl)-3-phenylpropionyl]-L-leucine tri-lithium salt]  6.89
2. CC(C)C[C@H](NC(=O)C(Cc1ccccc1)CP(=O)(O)O)C(=O)O (single isomer, unassigned) [compound 13, N-[2-Benzyl-3-(dihydroxyphosphinyl)propionyl]leucine]  6.80
3. CCOC(=O)[C@H](CC(C)C)NC(=O)C(Cc1ccccc1)P(=O)(O)O (stereo partly drawn) [compound 4, N-[2-(Dihydroxyphosphinyl)-3-phenylpropionyl.-L-leucine] ethyl ester]  6.22
4. CCOC(=O)[C@H](CC(C)C)NC(=O)C(Cc1ccccc1)CP(=O)(O)O (single isomer, unassigned) [compound 11]  6.17
5. CC(C)C[C@H](NC(=O)C(Cc1ccccc1)P(=O)(O)O)C(=O)O (stereo partly drawn) [Compound No. 7, N-[2-(Dihydroxyphosphinyl)-3-phenylpropionyl]-L-leucine tri-lithium salt]  6.17
6. CCOC(=O)[C@H](CC(C)C)NC(=O)C(Cc1ccccc1)P(=O)(O)O (stereo partly drawn) [compound 5, N-[2-(Dihydroxyphosphinyl)-3-phenylpropionyl.-L-leucine] ethyl ester]  5.82
7. COc1ccc(CC(C(=O)N[C@@H](CC(C)C)C(=O)O)P(=O)(O)O)cc1 (single isomer, unassigned) [Compound No. 1, N-[2-(Dihydroxyphosphinyl)-3-(4-methoxyphenyl)propionyl]-L-leucine]  5.74
8. CC(C)C[C@H](NC(=O)C(Cc1ccc(Br)cc1)P(=O)(O)O)C(=O)O (stereo partly drawn) [Compound No. 9, N-[3-(4-bromophenyl)-2-dihydroxyphosphinylpropionyl]-L-leucine, monosodium salt]  5.17
9. CC(C)C[C@H](NC(=O)C(Cc1ccccc1)CP(=O)(O)O)C(=O)O (single isomer, unassigned) [compound 14, N-[2-Benzyl-3-(dihydroxyphosphinyl)propionyl]leucine]  4.74
10. CC(C)C[C@H](NC(=O)C(Cc1ccc(C(C)C)cc1)P(=O)(O)O)C(=O)O (stereo partly drawn) [Compound No. 10, N-[2-dihydroxyphosphinyl-3-(4-isopropylphenyl)propionyl]-L-leucine, disodium salt]  4.64
11. C[C@H](CS)C(=O)N1CCC[C@H]1C(=O)O [Captopril, 1-(D-3-mercapto-2-methylpropanoyl)-L-proline (S,S), reference compound]  4.52
12. CCOC(=O)[C@H](CC(C)C)NC(=O)C(Cc1ccccc1)CP(=O)(O)O (single isomer, unassigned) [compound 12]  4.00

Same assay, conditions: no effect at 3 × 10^-5; leucine enkephalin 5×10^-5 M; 30° C.; 30 min with enzyme; read-out: IC50 (footnote symbol: no effect)

`CCOC(=O)[C@H](CC(C)C)NC(=O)C(Cc1ccccc1)P(=O)(OCC)OCC` (stereo partly drawn) [compound 2, N-[2-(Diethoxyphosphinyl)-3-phenylpropionyl]-L-leucine ethyl ester] and `CCOP(=O)(OCC)C(Cc1ccccc1)C(=O)N[C@@H](CC(C)C)C(=O)O` (stereo partly drawn) [compound 8, N-[2-(Diethoxyphosphinyl)-3-phenylpropionyl]-L-leucine] cannot be ordered by pIC50: less than 4.52 for the first, less than 4.52 for the second.

System: ACE versus enkephalinase
Assay: not given
Conditions: reported by Swerts et al.; ACE vs enkephalinase; cited from earlier work

For `C[C@H](CS)C(=O)N1CCC[C@H]1C(=O)O` [Captopril, 1-(D-3-mercapto-2-methylpropanoyl)-L-proline (S,S), reference compound], the “concentration required to inhibit ACE by 50% lower than that required for the same degree of inhibition of enkephalinase” value is listed as “approximately 1000 fold”.
